Literature values, collected in US20110207819A1, “Fat Emulsion for Artificially Feeding Seriously Ill Intensive Care Patients” (B. BRAUN MELSUNGEN AG, priority 2008, published 2011).

Tested on: CIP/CIM
Settings: intensified insulin therapy; intensive care patients

## insulin
  decrease of the incidence of CIP/CIM: 44%
